Data: patent publication US20020107228A1, “Topical bisphosphonates for prevention of bone resorption” (Merck & Co., Inc, priority 1996, published 2002)

Legend:
alveolar bone resorption = conditions: Yaffe et al. 1995, cited from earlier work
Wistar rats [1] = conditions: sacrifice 3 weeks after flap
Protocol: 63 Wistar rats were used in this experiment, and were divided into the four groups. Group A: 15 rats received 0.05 mg/kg body weight of alendronate. Group B: 15 rats received 0.25 mg/kg body weight of alendronate. Group C: 15 rats received 0.5 mg/kg body weight of alendronate. Group D was the control group, where 18 rats received saline. The alendronate sodium or saline was administered one week prior to surgery, at the day of surgery before the surgery was performed, and one week following surgery. The drug was administered IV in the dorsal vein of the penis.
In one experiment, one group of rats were anesthetized prior to surgery or alendronate administration using a mixture of 25 mg/kg body weight of KETALAR (Malgene, Lyon France), and 42 mg/kg body weight XYLAZINE (Rampun Bayer, Leverkusen, Germany) intraperitoneally (IP). A portion of these rats also received 25 mg/kg alendronate IP. […] The flap was elevated using a special small periosteal elevator, and readapted immediately in place without sutures. […]
In another set of experiments, alendronate was applied locally at three dose levels using a wet gauze sponge soaked with a solution of 0.15, 0.75, and 1.5 mg/ml on the exposed bone on the experimental side and saline on the exposed bone on the control side for 10 seconds. Since the sponge could absorb 0.1 ml, the maximum calculated amount of drug applied was 0.5 mg/kg body weight. […]

Wistar rats [2] = conditions: topical, 1 mm GELFOAM pellet soaked in 0.025 ml of 20 mg/ml alendronate in saline, in situ at least two hours; sacrifice 21 days after surgery; vs GELFOAM-only control side
Protocol: Wistar rats were used in the following experiment. The right side of the mandible was used as the experimental side and the left side was used as the control.
The rats were anesthetized prior to surgery using a mixture of 25 mg/kg body weight of KETALAR (Malgene, Lyon, France) and 42 mg/kg body weight of XYLAZINE (Rampun Bayer, Leverkusen, Germany) intraperitoneally (IP).
A mucoperiosteal flap was made on both the buccal and lingual aspects in the region of premolars and molars on both sides of the mandible, two quadrants per rat. The flap was elevated using a special small periosteal elevator. A 1 mm diameter piece of GELFOAM (Upjohn Co., Kalamazoo, Mich.) which was soaked in 0.025 ml alendronate solution (below) was applied to the alveolar bone on both buccal and lingual aspects on the experimental (right) side and the flap was then readapted immediately in place without sutures.
The alendronate solution was prepared by dissolving 20 mg alendronate in 1 ml saline.
A GELFOAM pellet of 1 mm diameter, identical to the alendronate-soaked pellet, but lacking the alendronate, was applied to the alveolar bone in the control side. The entire procedure lasted about 20-40 seconds. The GELFOAM pellets remained in situ for at least two hours while the anesthesia was effected. The rats were fed a soft diet for 24 hours after surgery to avoid flap displacement. […]

SMILES: NCCCC(O)(P(=O)(O)O)P(=O)(O)O [alendronate, 4-amino-1-hydroxy-butylidene 1,1,-bisphosphonic acid]
- inhibiting bone resorption following surgery (alveolar bone resorption; alendronate solutions applied topically): not found to be effective
- amount of alveolar bone resorption following surgery (alveolar bone resorption; intravenous administration): reduce
- alveolar bone resorption (X-ray microradiography) (Wistar rats [1]; IV, all doses (0.05, 0.25, 0.5 mg/kg), one week before, day of and one week after surgery): reduced
- effect on reducing bone resorption (alveolar bone, X-ray microradiography) (Wistar rats [1]; applied locally for 10 seconds on alveolar bone during surgery, wet gauze sponge, 0.15, 0.75 and 1.5 mg/ml): no noticeable effect
- bone resorption (alveolar bone, X-ray microradiography) (Wistar rats [2]): inhibited
